Results: patent US5002753A, “Specific ligands for estrogen and progestagen steroid hormone receptors, application and intermediate synthesis products” (IRE-Celltarg S.A., priority 1988, dated 1991)
Read-outs that look alike come from different tables or passages of the source.

Experiments:
[1] = tested on: MXT syngenetic mammary tumors; test: Targeted radiotherapy of female BDF1 mice grafted with MXT syngenetic mammary tumors; assay type: in vivo
Experimental: (§1) Twenty nine female BDF1 mice were grafted with MXT syngenetic mammary tumors implanted subcutaneously. Fourteen mice received three intravenous injections of 100 μCi of 11beta-chloromethyl-17-iodovinyl- ^123 I of E isomerism at fortnightly intervals.
(§2) The 100 μCi of labeled hormone were injected diluted in 200 μl of solution containing 9 g/l NaCl, 5% ethanol and 1% of Tween 80. The fifteen control mice received 200 μl of the NaCl/ethanol/Tween solution on the same dates.

[2] = Acute toxicity in mice grafted with MXT mammary tumors; assay type: in vivo, female BDF1 mice; conditions: three i.v. injections of 100 μCi at fortnightly intervals, period of 60 days
Experimental: as §1, §2

estrogen receptors = target: T1, estrogen receptors (Homo sapiens, UniProt P03372); test: Inhibition of the fixation of tritiated estradiol on cytosols of MCF7 mammary human tumor; assay type: binding; conditions: 25° C, MCF7 cytosol
T1 construct: cytosols of MCF7 mammary human tumor rich in estrogen receptors; endogenous in cells; host or cells: MCF7 human mammary tumor, cytosol
T1 sequence (P03372 1-595): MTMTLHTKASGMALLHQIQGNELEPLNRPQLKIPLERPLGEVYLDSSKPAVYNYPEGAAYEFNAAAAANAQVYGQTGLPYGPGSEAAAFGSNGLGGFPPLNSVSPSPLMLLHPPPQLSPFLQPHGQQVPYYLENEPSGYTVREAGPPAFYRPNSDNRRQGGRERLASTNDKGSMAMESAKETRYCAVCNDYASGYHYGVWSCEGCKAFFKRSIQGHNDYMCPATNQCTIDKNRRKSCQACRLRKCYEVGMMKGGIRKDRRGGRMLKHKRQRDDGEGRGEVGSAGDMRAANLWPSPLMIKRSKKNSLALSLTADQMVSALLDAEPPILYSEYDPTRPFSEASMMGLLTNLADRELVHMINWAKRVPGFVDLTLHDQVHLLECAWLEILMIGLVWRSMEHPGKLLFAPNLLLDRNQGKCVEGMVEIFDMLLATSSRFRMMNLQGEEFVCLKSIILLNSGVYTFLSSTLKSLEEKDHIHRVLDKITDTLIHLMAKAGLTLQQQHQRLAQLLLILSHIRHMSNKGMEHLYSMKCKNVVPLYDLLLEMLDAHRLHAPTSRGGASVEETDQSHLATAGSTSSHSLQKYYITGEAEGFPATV

[3] = Hydrophobicity index based on retention time in reverse phase HPLC; assay type: physicochemical; set-up: retention time (hydrophobicity index): dose or concentration left out as unconfirmed; conditions: for retention time (hydrophobicity index): HPLC reverse phase, microBondapack C18, 1 ml/min of ethanol in H2O
[4] = Stability of the radioiodinated product in column eluate (60% ethanol) at -20° C; assay type: physicochemical
Experimental: The method is the same as for the labelling of (14').
The starting material is the derivative (15').
The HPLC separation conditions are different: the mobile phase is 60% ethanol in water, the flow rate is 1 ml/min, the final product is collected at 12 minutes. The labeled product is kept as such in the column eluate (60% ethanol). In these conditions, it is stable for at least 12 days at -20° C. (deiodination less than 2%).

[5] = Biodistribution of 125I-labeled Z isomer (16') in ovarectomized BDF1 mice; assay type: in vivo; conditions: for tissue uptake at 2 h / tissue uptake at 24 h: mouse, 1 uCi, 1 μCi 125I, ± S.D.
Experimental: The biodistribution of the Z isomer (16') in ovarectomized BDF mice is highly favorable.
8 ovarectomized BDF1 mice were injected with 1 μCi of 11beta-chloromethyl-17alpha-(2-iodovinyl)estradiol-(^125 I). 4 mice were sacrificed 2 hours after the estradiolinjection and 4 24 hours after the injection.

estrogen receptor = target: T2, estrogen receptor (Bos taurus, UniProt P49884); test: Tests of binding of calf uterus cytosol to the estrogen receptor
T2 sequence (P49884 1-596): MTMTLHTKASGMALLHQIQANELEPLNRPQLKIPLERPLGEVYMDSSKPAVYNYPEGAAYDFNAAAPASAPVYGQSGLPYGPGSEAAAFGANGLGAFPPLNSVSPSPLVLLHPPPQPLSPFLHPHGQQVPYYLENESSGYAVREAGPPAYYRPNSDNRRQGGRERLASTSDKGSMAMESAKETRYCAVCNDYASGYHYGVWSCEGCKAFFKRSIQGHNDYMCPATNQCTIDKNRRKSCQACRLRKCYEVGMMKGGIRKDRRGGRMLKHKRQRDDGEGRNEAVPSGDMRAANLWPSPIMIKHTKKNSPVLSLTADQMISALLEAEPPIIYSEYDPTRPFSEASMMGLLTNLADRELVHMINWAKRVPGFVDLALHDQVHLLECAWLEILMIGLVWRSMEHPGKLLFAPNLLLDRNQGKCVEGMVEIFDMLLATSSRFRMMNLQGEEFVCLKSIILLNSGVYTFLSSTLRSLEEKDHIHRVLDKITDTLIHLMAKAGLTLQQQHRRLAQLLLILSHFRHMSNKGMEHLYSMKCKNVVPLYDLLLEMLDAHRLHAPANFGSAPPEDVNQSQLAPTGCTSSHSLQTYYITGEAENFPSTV
Text: The nonspecific binding to the transport proteins is diminished by virtue of the presence of the 11-beta and 17-alpha groups.

[6] = rat, in vivo, 1440 min; cited from earlier work
[7] = blood, read-out: % injected dose/g of tissue, blood
[8] = fat, read-out: % injected dose/g of tissue, fat
[9] = kidneys, read-out: % injected dose/g of tissue, kidneys
[10] = liver, read-out: % injected dose/g of tissue, liver
[11] = muscle, read-out: % injected dose/g of tissue, muscle
[12] = spleen, read-out: % injected dose/g of tissue, spleen
[13] = uterus, read-out: % injected dose/g of tissue, uterus

C[C@]12C[C@H](CCl)[C@@H]3c4ccc(O)cc4CC[C@H]3[C@@H]1CC[C@@]2(O)/C=C/[123I] [11beta-chloromethyl-17-iodovinyl- ^123 I of E isomerism, 11Beta-Chloromethyl-17-Iodovinylestradiol-^123 I]
tumor growth compared with the control group, % of the average tumor growth ([1]; day 18, three i.v. injections of 100 μCi at fortnightly intervals): lower than 45%
tumor growth compared with the control group (in words) ([1]; three i.v. injections of 100 μCi at fortnightly intervals): significant slowing down of the tumor growth
survival ([1]; versus control group): better survival
acute toxicity [2]: No acute toxicity was detected

C[C@]12C[C@H](CCl)[C@@H]3c4ccc(O)cc4CC[C@H]3[C@@H]1CC[C@@]2(O)C=CI [11beta-chloromethyl-17-iodovinylestradiol]
affinity (in words) (estrogen receptors): an affinity comparable with that of 11beta-chloromethylestradiol and clearly superior to that of estradiol
relative binding affinity (estrogen receptors; versus estradiol): greater than 1,000

C[C@]12C[C@H](CCl)[C@@H]3c4ccc(O)cc4CC[C@H]3[C@@H]1CC[C@@]2(O)/C=C/I [14', (E)-11-chloromethyl-3,17β-dihydroxy-17α-(2iodovinyl)-1,3,5(10)-estratriene]
retention time (hydrophobicity index) [3]: 14.3 min

C[C@]12C[C@H](CCl)[C@@H]3c4ccc(O)cc4CC[C@H]3[C@@H]1CC[C@@]2(O)/C=C\I [16', (Z)-11beta-chloromethyl-3,17beta-dihydroxy17alpha-(2-iodovinyl)-1,3,5(10)-estratriene]
degraded at 288 h ([4]; 60% ethanol): < 2%
stable for at least (storage stability of labeled product) ([4]; column eluate (60% ethanol), -20° C): at least 12 days
retention time (hydrophobicity index) [3]: 12.1 min
hydrophobicity, Z isomer versus E isomer (in words) ([3]; comparison of Z with E isomer): less hydrophobic than the E isomer
uterus/blood concentration ratio ([5]; 2 h): 6.16
uterus/fat concentration ratio ([5]; 2 h): 2.90
uterus/liver concentration ratio ([5]; 2 h): 1.30
uterus/muscle concentration ratio ([5]; 2 h): 7.48
uterus/blood concentration ratio ([5]; 24 h): 65.80
uterus/fat concentration ratio ([5]; 24 h): 35.42
uterus/liver concentration ratio ([5]; 24 h): 10.12
uterus/muscle concentration ratio ([5]; 24 h): 92.10
tissue uptake at 2 h [5, 7]: 1.08 ± 0.24 %ID/g
tissue uptake at 24 h [5, 7]: 0.14 ± 0.02 %ID/g
tissue uptake at 2 h [5, 8]: 2.29 ± 0.25 %ID/g
tissue uptake at 24 h [5, 8]: 0.26 ± 0.09 %ID/g
tissue uptake at 2 h [5, 9]: 1.84 ± 0.27 %ID/g
tissue uptake at 24 h [5, 9]: 0.2 ± 0.02 %ID/g
tissue uptake at 2 h [5, 10]: 5.1 ± 0.72 %ID/g
tissue uptake at 24 h [5, 10]: 0.91 ± 0.05 %ID/g
tissue uptake at 2 h [5, 11]: 0.89 ± 0.07 %ID/g
tissue uptake at 24 h [5, 11]: 0.1 %ID/g
tissue uptake at 2 h [5, 12]: 0.97 ± 0.18 %ID/g
tissue uptake at 24 h [5, 12]: 0.12 ± 0.01 %ID/g
tissue uptake at 2 h [5, 13]: 6.66 ± 0.91 %ID/g
tissue uptake at 24 h [5, 13]: 9.21 ± 1.44 %ID/g
binding to the estrogen receptor (in words) (estrogen receptor; 25° C, 1 h, final 5 mM, versus tritiated estradiol): binding of the same order as the tritiated estradiol
nonspecific binding (estrogen receptor; 25° C, 1 h, saturating dose (final 5 mM), calf uterus cytosol): 23%
nonspecific binding to the transport proteins (in words) (estrogen receptor; versus tritiated estradiol): diminished
sensitivity level (in words) (estrogen receptor; versus tritiated estradiol, by virtue of the higher specific activity): higher sensitivity level

CCC1C[C@@]2(C)[C@@H](CCC2(O)C=C[125I])[C@@H]2CCc3cc(O)ccc3[C@@H]12 (stereo partly shown) [I-125 17-iodovinyl-11-ethylestradiol, 17-iodovinyl-11-ethylestradiol]
uterus/blood ratio [6]: 40.4
uterus/liver ratio [6]: 3.89
uterus/lung ratio [6]: 52.8
